Structures are written as SMILES.

These results are taken from patent US20100311714A1, “1H-IMIDAZO[4,5-c]QUINOLINONE COMPOUNDS” (priority 2009, published 2010).

One experiment has as its target T1, PI3K alfa (Homo sapiens, UniProt P42336).
T1 construct: His tag (C); made in house; host or cells: baculovirus BV1075; Tn5 (Trichoplusia ni) or TiniPro insect cells
Briefly: PI3K alpha kinase assay (Kinase-Glo luminescence). Type of experiment: biochemical. The conditions noted are these: read-out: EPK_PI3Kalfa/IC50. As to the method:
(§1) In a more preferred assay, the kinase reaction is performed in a final volume of 10 μL per well of a low volume non binding CORNING, 384 well black plate (Cat. No. #3676). The final concentrations of ATP and phosphatidyl inositol (PI) in the assay are 1 μM and 10 μg/mL respectively. The reaction is started by the addition of ATP.
(§2) The components of the assay are added per well as follows:
(§3) 50 nL test compounds in 90% DMSO per well, in columns 1-20, 8 concentrations (⅓ and 1/3.33 serial dilution step) in single. • Low control: […] of 90% DMSO in half the wells of columns 23-24 (0.45% in final). • High control: 50 nL of reference compound (e.g. compound of Example 7 in WO 2006/122806) in the other half of columns 23-24 (2.5 μM in final). • Standard: 50 nL of reference compound as just mentioned diluted as the test compounds in columns 21-22 • 20 mL ‘buffer’ are prepared per assay: • 200 μL of 1M TRIS HCl pH7.5 (10 mM in final) • 60 μL of 1M MgCl2 (3 mM in final) • 500 μL of 2M NaCl (50 mM in final) • 100 μL of 10% CHAPS (0.05% in final) • 200 μL of 100 mM DTT (1 mM in final) • 18.94 mL of nanopure water • 10 mL ‘PI’ are prepared per assay: • 200 μL of 1 mg/ml L-alpha-Phosphatidylinositol (Liver Bovine, Avanti Polar Lipids Cat. No. 840042C MW=909.12) prepared in 3% OctylGlucoside (10 μg/ml in final) • 9.8 mL of ‘buffer’ • 10 mL ‘ATP’ are prepared per assay: • 6.7 μL of 3 mM stock of ATP giving a final concentration of 1 μM per well • 10 mL of ‘buffer’ • 2.5 mL of each PI3K construct are prepared per assay in ‘PI’ with the following final concentration: • 10 nM PI3K alfa EMV B1075 • 25 nM beta EMV BV949 • 10 nM delta EMV BV1060 • 150 nM gamma EMV BV950 • 5 μL of ‘PI/PI3K’ are added per well. • 5 μl ‘ATP’ are added per well to start the reaction. • The plates are then incubated at room temperature for 60 minutes (alfa, beta, delta) or 120 minutes (gamma). • The reaction is terminated by the addition of 10 μL Kinase-Glo (Promega Cat. No. #6714). • The assay plates are read after 10 minutes in Synergy 2 reader (BioTek, Vermont USA) with an integration time of 100 milliseconds and sensitivity set to 191. • Output: The High control is around 60′000 counts and the Low control is 30′000 or lower • This luminescence assay gives a useful Z′ ratio between 0.4 and 0.7
Two different constructs, BV 1052 and BV 1075, are used to generate the PI3 Kinase α proteins for compound screening.
PI3K alpha is purified in three chromatographic steps: immobilized metal affinity chromatography on a Ni Sepharose resin (GE Healthcare, belonging to General Electric Company, Fairfield, Conn., USA), gel filtration utilizing a Superdex 200 26/60 column (GE Healthcare), and finally a cation exchange step on a SP-XL column (GE Healthcare). All buffers are chilled to 4° C. and lysis is performed chilled on ice. Column fractionation is performed rapidly at room temperature.
(§4) IC50 is determined by a four parameter curve fitting routine that comes along with “excel fit”. A 4 Parameter logistic equation is used to calculate IC50 values (IDBS XLfit) of the percentage inhibition of each compound at 8 concentrations (usually 10, 3.0, 1.0, 0.3, 0.1, 0.030, 0.010 and 0.003 μM). Alternatively, IC50 values are calculated using idbsXLfit model 204, which is a 4 parameter logistic model.
A general note: In Kinase-Glo more light means more ATP remaining.

The target in a further experiment is T2, PI3K delta (Homo sapiens, UniProt O00329).
T2 construct: for the full-length p110-d subunit are generated and fused by overlapping PCR; His tag (C); made in house; host or cells: baculovirus BV1060; Tn5 (Trichoplusia ni) or TiniPro insect cells
Briefly: PI3K delta kinase assay (Kinase-Glo luminescence). The conditions noted are these: read-out: EPK_PI3Kdelta/IC50. The format is biochemical. The protocol:
as §1, §2, §3
PI3Kδ BV-1060 p85(iSH2)-Gly Linker-p110d(Full-Length)-C-Term His Tag
PI3K delta is purified in three chromatographic steps: immobilized metal affinity chromatography on a Ni Sepharose resin (GE Healthcare), gel filtration utilizing a Superdex 200 26/60 column (GE Healthcare), and finally a anion exchange step on a Q-HP column (GE Healthcare). All buffers are chilled to 4° C. and lysis is performed chilled on ice. Column fractionation is performed rapidly at room temperature. Typically frozen insect cells are lysed in a hypertonic lysis buffer and applied to a prepared IMAC column. The resin is washed with 3-5 column volumes of lysis buffer, followed by 3-5 column volumes wash buffer containing 45 mM imidazole, and the target protein is then eluted with a buffer containing 250 mM imidazole. Fractions are analyzed by Coomassie stained SDS-PAGE gels, and fractions containing the target protein are pooled and applied to a prepared GFC column. Fractions from the GFC column are analyzed by Coomassie stained SDS-PAGE gels, and fractions containing the target protein are pooled. The pool from the GFC column is diluted into a low salt buffer and applied to a prepared Q-HP column. The column is washed with low salt buffer until a stable A280 baseline absorbance is achieved, and eluted using a 20 column volume gradient from 0 mM NaCl to 500 mM NaCl. Again, fractions from the Q-HP column are analyzed by Coomassie stained SDS-PAGE gels, and fractions containing the target protein are pooled. The final pool is dialyzed into a storage buffer containing 50% glycerol and stored at −20° C. The final pool is assayed for activity in the phosphoinostitol kinase assay. […]

A further experiment has as its target T3, mTOR (Homo sapiens, UniProt P42345).
T3 construct: purchased Invitrogen Corporation (Carlsbad/Calif., USA) PV4753
Briefly: Biochemical assay for m-TOR by TR-FRET. To be noted: read-out: EPK_mTOR/IC50. The protocol:
Biochemical Assay for m-TOR by TR-FRET.
Assay components are purchased from Invitrogen Corporation (Carlsbad/Calif., USA): GFP-4EBP1 (Cat. No. PV4759), Tb3+-α-p4EBP1 [pThr46] Antibody (Cat. No. PV4757), proprietary TR-FRET dilution buffer (Cat. No. PV3574), mTOR protein (Cat. No. PV4753).
50 nL of compound dilutions (final concentration of 10, 3.0, 1.0, 0.3, 0.1, 0.03, 0.01 and 0.003 μM) are dispensed onto black 384-well low volume non-binding polystyrene (Cat. No. NBS#3676, Corning, Lowell/Mass., USA). Then 5 μL of ATP (8 μM final concentration) and GFP-4EBP1 (400 nM final concentration) with 5 μL mTOR proteins (0.5 nM final concentration) are incubated at rt. The standard reaction buffer for the TR-FRET mTOR assay contained 50 mM HEPES pH 7.5, 10 mM MnCl2, 50 mM NaCl, 1 mM EGTA, 1 mM DTT. Reactions were stopped with 10 μL of a mixture of EDTA containing the Tb3+-α-p4EBP1[pT46] detection Ab (0.5 nM) in TR-FRET dilution buffer (proprietary to IVG). Plates are read 15 mins later in a Synergy2 reader using an integration time of 0.2 seconds and a delay of 0.1 seconds. Control for the 100% inhibition of the kinase reaction is performed by replacing the mTOR kinase by the standard reaction buffer. The control for the 0% inhibition is given by the solvent vehicle of the compounds (90% DMSO in H2O). A standard compound is used as a reference compound and included in all assay plates in the form of 16 dilution points in duplicate.

The target of another experiment is T4, PI3K beta (Homo sapiens, UniProt P42338).
T4 construct: for the full-length p110-b subunit are generated and fused by overlapping PCR; His tag (C); made in house; host or cells: baculovirus BV949; Tn5 (Trichoplusia ni) or TiniPro insect cells
The experiment can be described thus: PI3K beta kinase assay (Kinase-Glo luminescence). The format is biochemical. The conditions noted are these: read-out: EPK_PI3Kbeta/IC50. The protocol:
as §1, §2, §3
PI3Kβ BV-949 p85(iSH2)-Gly linker-r 110b(full-length)-C-term His Tag
PI3K beta is purified in two chromatographic steps: immobilized metal affinity chromatography (IMAC) on a Ni Sepharose resin (GE Healthcare) and gel filtration (GFC) utilizing a Superdex 200 26/60 column (GE Healthcare). All buffers are chilled to 4° C. and lysis is performed chilled on ice. Column fractionation is performed rapidly at room temperature.
as §4

T2 sequence (O00329 with tags, fused parts or gaps limits assumed): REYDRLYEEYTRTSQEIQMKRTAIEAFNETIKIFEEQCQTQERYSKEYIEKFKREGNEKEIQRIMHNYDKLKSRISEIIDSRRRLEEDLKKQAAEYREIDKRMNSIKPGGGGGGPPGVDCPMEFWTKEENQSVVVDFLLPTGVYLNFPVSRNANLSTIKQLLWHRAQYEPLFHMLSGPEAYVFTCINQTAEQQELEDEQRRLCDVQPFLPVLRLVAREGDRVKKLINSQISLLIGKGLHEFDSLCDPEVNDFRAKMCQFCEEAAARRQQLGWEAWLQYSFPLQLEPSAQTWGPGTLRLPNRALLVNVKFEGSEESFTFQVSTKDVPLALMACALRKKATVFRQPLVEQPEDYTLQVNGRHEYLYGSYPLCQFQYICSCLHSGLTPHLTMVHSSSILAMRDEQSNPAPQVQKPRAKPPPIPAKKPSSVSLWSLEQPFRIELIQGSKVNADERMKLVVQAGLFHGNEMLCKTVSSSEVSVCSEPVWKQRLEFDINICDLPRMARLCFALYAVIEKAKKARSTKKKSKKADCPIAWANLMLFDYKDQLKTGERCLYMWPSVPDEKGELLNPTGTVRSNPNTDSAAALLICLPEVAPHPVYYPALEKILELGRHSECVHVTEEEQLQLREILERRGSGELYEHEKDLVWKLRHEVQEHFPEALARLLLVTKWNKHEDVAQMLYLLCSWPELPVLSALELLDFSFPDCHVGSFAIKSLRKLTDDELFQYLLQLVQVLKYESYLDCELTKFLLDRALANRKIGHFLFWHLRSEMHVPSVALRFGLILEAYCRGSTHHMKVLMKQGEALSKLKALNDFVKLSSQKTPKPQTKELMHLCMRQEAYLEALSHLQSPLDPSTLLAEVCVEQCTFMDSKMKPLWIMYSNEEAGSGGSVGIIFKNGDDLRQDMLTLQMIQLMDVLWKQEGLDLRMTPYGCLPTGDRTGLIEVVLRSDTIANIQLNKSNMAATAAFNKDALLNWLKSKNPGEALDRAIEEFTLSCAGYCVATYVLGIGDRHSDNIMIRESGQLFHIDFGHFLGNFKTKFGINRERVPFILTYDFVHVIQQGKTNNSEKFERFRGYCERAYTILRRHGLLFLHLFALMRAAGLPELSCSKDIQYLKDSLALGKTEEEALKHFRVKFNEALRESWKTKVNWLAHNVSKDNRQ
T3 sequence (P42345 1360-2549 limits assumed): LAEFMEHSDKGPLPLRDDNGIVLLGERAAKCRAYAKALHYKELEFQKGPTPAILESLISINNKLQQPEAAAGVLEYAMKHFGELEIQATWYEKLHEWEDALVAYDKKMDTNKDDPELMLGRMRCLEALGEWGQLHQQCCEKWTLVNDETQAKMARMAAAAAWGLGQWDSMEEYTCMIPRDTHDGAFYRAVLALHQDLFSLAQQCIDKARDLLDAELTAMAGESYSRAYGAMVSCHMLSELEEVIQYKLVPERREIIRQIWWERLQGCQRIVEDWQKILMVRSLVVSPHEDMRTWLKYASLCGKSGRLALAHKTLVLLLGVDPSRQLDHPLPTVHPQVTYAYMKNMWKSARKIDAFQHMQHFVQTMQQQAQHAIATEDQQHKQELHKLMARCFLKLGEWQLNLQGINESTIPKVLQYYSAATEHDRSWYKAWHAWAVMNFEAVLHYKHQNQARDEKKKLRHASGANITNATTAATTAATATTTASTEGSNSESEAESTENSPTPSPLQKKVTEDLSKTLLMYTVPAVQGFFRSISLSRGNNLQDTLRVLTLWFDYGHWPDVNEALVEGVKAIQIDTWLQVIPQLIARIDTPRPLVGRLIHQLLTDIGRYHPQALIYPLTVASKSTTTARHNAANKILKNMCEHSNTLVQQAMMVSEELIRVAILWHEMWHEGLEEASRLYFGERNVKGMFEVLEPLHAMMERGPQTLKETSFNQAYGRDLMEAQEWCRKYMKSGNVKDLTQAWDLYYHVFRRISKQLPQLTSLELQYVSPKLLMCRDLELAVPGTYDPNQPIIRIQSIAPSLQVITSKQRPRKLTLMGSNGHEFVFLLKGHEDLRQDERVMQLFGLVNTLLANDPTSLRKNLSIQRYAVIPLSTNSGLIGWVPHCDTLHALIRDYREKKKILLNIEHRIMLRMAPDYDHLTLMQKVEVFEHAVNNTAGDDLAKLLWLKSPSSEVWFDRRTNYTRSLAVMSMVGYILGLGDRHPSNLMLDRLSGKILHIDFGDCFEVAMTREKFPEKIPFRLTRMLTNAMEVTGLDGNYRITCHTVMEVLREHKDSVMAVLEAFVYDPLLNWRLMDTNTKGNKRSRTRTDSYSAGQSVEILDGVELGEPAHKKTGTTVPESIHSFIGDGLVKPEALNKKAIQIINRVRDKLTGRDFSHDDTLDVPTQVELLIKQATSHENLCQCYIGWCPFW
T1 sequence (P42336 with tags, fused parts or gaps limits assumed): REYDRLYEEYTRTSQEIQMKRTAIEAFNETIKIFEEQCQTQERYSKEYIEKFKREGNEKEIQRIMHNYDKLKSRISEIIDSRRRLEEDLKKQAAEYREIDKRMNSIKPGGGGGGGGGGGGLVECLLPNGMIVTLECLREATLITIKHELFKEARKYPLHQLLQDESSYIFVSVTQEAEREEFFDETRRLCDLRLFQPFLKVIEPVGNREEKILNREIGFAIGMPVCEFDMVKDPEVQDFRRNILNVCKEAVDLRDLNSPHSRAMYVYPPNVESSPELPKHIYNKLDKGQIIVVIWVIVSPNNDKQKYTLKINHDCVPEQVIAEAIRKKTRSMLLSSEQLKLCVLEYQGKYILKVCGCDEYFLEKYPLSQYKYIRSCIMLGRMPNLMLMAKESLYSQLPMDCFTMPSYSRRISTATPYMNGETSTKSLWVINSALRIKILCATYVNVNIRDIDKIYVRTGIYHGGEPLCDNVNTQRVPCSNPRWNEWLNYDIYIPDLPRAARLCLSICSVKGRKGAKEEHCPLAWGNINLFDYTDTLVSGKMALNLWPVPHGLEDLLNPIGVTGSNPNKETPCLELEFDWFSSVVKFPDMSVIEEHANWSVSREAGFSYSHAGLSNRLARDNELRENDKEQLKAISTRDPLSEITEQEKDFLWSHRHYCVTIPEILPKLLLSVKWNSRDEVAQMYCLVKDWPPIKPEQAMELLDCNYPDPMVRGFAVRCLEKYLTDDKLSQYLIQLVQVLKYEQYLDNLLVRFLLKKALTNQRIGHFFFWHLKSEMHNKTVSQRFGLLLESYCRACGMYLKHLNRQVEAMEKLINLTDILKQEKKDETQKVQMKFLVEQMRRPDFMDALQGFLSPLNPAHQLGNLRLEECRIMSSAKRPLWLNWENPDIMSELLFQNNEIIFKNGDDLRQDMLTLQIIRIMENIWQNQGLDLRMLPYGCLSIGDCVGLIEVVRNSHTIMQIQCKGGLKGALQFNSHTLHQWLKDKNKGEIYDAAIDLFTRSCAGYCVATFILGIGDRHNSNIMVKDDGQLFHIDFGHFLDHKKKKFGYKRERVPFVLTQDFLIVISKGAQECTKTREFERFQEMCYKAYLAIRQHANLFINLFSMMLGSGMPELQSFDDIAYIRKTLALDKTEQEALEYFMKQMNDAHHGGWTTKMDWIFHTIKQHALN
T4 sequence (P42338 with tags, fused parts or gaps limits assumed): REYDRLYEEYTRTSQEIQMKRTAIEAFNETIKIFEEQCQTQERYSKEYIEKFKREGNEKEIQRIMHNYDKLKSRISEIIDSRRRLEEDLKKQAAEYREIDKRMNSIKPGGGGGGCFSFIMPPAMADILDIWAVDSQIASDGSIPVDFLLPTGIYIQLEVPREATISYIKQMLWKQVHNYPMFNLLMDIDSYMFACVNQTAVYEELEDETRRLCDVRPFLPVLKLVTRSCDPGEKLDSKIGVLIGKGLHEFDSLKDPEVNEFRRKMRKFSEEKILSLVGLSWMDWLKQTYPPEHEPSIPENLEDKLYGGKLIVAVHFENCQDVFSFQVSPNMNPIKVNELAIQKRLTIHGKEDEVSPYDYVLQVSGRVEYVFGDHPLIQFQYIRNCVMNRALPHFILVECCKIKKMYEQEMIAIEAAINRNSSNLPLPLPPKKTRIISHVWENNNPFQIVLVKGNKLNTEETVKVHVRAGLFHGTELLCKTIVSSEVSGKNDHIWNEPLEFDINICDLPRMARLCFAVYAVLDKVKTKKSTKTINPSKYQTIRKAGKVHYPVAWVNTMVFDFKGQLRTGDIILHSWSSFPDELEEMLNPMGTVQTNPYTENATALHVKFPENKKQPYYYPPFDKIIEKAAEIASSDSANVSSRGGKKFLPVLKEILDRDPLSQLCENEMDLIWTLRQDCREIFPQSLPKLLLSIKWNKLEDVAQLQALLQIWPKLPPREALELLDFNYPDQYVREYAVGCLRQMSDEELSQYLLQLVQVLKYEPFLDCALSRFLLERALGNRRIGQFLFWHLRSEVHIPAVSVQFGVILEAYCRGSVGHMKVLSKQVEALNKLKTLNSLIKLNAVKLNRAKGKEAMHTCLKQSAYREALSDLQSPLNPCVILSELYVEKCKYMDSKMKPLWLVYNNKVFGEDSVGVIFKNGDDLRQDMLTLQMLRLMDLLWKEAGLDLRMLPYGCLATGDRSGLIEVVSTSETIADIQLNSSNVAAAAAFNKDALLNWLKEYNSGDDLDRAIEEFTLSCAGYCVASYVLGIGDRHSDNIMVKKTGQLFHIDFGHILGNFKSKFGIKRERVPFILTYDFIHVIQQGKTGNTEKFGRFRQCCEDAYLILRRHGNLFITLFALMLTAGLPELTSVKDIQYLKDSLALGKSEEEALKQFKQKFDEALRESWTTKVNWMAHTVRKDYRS

For the compound `CCNc1ncc(-c2ccc3ncc4c(c3c2)n(-c2ccc(N3CC[C@@H](O)C3)nc2C)c(=O)n4C)cn1` [Example 34.3, 8-(2-Ethylamino-pyrimidin-5-yl)-1-[6-((R)-3-hydroxy-pyrrolidin-1-yl)-2-methyl-pyridin-3-yl]-3-methyl-1,3-dihydro-imidazo[4,5-c]quinolin-2-one], the IC50 at PI3K alfa came out at 45 nM; on PI3K delta, 18 nM; on mTOR, 11 nM; on PI3K beta, 416 nM.

`COc1cc(-c2ccc3ncc4c(c3c2)n(-c2ccc(N3CC(F)(F)C(F)(F)C3)nc2C)c(=O)n4C)cnc1CO` [Example 35.3, 8-(6-Hydroxymethyl-5-methoxy-pyridin-3-yl)-3-methyl-1-[2-methyl-6-(3,3,4,4-tetrafluoro-pyrrolidin-1-yl)-pyridin-3-yl]-1,3-dihydro-imidazo[4,5-c]quinolin-2-one]: the IC50 at PI3K alfa turned out to be 14 nM; at PI3K delta, 10 nM; on mTOR, 175 nM; on PI3K beta it was 48.7 nM.

In the case of `Cc1nc(N2CC(F)(F)C(F)(F)C2)ccc1-n1c(=O)n(C)c2cnc3ccc(-c4cnc(N)c(CO)c4)cc3c21` [Example 35.4, 8-(6-Amino-5-hydroxymethyl-pyridin-3-yl)-3-methyl-1-[2-methyl-6-(3,3,4,4-tetrafluoro-pyrrolidin-1-yl)-pyridin-3-yl]-1,3-dihydro-imidazo[4,5-c]quinolin-2-one], the IC50 on PI3K alfa came to 39 nM; at PI3K delta, 21 nM; on mTOR, 66 nM; at PI3K beta, 207 nM.
